Test results published in patent EP0187619A2, “1,3-Disubstituted tetrahydropyridines” (priority 1985, dated 1986).

How the values were obtained:
[1] = Step-down Passive Avoidance Test (Mondadori and Waser): memory improvement; assay type: in vivo; details: for Gedächtnisverbesserung: significance by Mann-Whitney U test; for Dosis, um die gedächtnisverbessernde Wirkung von 0,1 mg/kg i.p. von 1-[2-(Indol-3-yl)ethyl]-1,2,5,6,-tetrahydro-pyridin-3-carbonsauremethylester zu erzielen / Dosis relativ zu 1-[2-(Indol-3-yl)ethyl]-1,2,5,6,-tetrahydro-pyridin-3-carbonsauremethylester für gleiche gedächtnisverbessernde Wirkung: i.p.; for Dosis relativ zu 1-[2-(Indol-3-yl)ethyl]-1,2,5,6,-tetrahydro-pyridin-3-carbonsauremethylester für gleiche gedächtnisverbessernde Wirkung: 10 mg/kg versus 0,1 mg/kg
Experimental: Insbesondere zeigen die Verbindungen der Formel I eine starke gedächtnisverbessernde Wirkung im Step-down Passive Avoidance Test nach Mondadori und Waser, Psychopharmacology 63, 297-300 (1979). Die Substanzen sind wirksam bei intraperitonealer Gabe 30 Minuten vor dem Lernversuch (wirksame Dosen 0,1, 1, 10 mg/kg). Eine deutliche Wirkung war auch feststellbar bei peroraler Applikation 60 Minuten vor dem Lernversuch (wirksame Dosen 0,1, 1, 10 mg/kg) sowie bei intraperitonealer Applikation unmittelbar nach dem Lernversuch (wirksame Dosen 0,1, 1, 10 mg/kg). […] Daraus ergibt sich, dass, um die gedächtnisverbessernde Wirkung von 0,1 mg/kg i.p. von 1-[2-(Indol-3-yl)ethyl]-1,2,5,6,-tetrahydro-pyridin-3-carbonsauremethylester zu erzielen, 10 mg/kg i.p., d.h. die 100-fache Dosis eines Isomeren A, B und C benötigt werden. Die Signifikanzangaben beziehen sich, ebenso wie im vorhergehenden Absatz, auf den U-Test von Mann und Whitney.

[2] = system: amnesiogene Wirkung eines Elektroschocks; assay: Two-compartment test: protection against electroshock-induced amnesia; assay type: in vivo, Maus; details: for antiamnesiogener Effekt: significance by Mann-Whitney U test
Experimental: So vermindern sie an der Maus in Dosen ab etwa 0,1 mg/kg i.p. sowie p.o. die amnesiogene Wirkung eines Elektroschocks in mindestens gleichem Ausmass wie nach Verabfolgung einer nootrop wirksamen Dosis von Piracetam (100 mg/kg i.p.). Zum Nachweis der nootropen Wirkung kann beispielsweise der Two-Compartment-Test herangezogen werden.
Als Literatur über pharmakologische Modelle dieser Art seien z.B. genannt: S.J. Sara und D. Lefevre, Paychopharmacologia 25, 32-40 (1972), Hypoxia-induced amnesia in one-trial learning and pharmacological protection by piracetam. Boggan, W.O., und Schlesinger, K., in Behavioral Biology 12, 127-134 (1974).

Row | SMILES | Gedächtnisverbesserung ([1]; 0,1 mg/kg i.p.) | Gedächtnisverbesserung ([1]; 10 mg/kg i.p.) | Gedächtnisverbesserung ([1]; 1,0 mg/kg i.p.) | antiamnesiogener Effekt ([2]; 0,1 mg/kg i.p.) | antiamnesiogener Effekt ([2]; 1,0 mg/kg i.p.) | Dosis, um die gedächtnisverbessernde Wirkung von 0,1 mg/kg i.p. von 1-[2-(Indol-3-yl)ethyl]-1,2,5,6,-tetrahydro-pyridin-3-carbonsauremethylester zu erzielen [1] | Dosis relativ zu 1-[2-(Indol-3-yl)ethyl]-1,2,5,6,-tetrahydro-pyridin-3-carbonsauremethylester für gleiche gedächtnisverbessernde Wirkung [1] | antiamnesiogener Effekt ([2]; 10 mg/kg i.p.) | nootrop wirksame Dosis ([2]; Maus, i.p., reference)
1 | COC(=O)C1=CCCN(CCc2c[nH]c3ccccc23)C1 [1-[2-(Indol-3-yl)ethyl]-1,2,5,6-tetrahydro-pyridin-3-carbonsäuremethylester] | signifikante (p<0,05) | hochsignifikante (p<0,01) | signifikante (p<0,05) | hochsignifikanten (p<0,01) antiamnesiogenen Effekt | hochsignifikanten (p<0,01) antiamnesiogenen Effekt | – | – | – | –
2 | COC(=O)C1=CN(CCc2c[nH]c3ccccc23)CCC1 [Isomere A, 1-(2-(Indol-3-yl)-ethyl]-1,4,5,6-tetrahydro-pyridin-3-carbonsäuremethylester] | keinen | signifikanten (p<0,05) Effekt | keinen | keinen signifikanten | gewissen (nur einseitig signifikanten) | 10 mg/kg | 100 -fache Dosis | keinen signifikanten | –
3 | CCOC(=O)C1=CCCN(Cc2c[nH]c3ccccc23)C1 [Isomere B, 1-(Indol-3-yl)methyl-l,2,5,6-tetrahydro-pyridin-3-carbonsäureethylester] | keinen | signifikanten (p<0,05) Effekt | keinen | ähnlichen, jedoch weniger signifikanten (p<0,05) Effekt | ähnlichen, jedoch weniger signifikanten (p<0,05) Effekt | 10 mg/kg | 100 -fache Dosis | ähnlichen, jedoch weniger signifikanten (p<0,05) Effekt | –
4 | COC(=O)C1=CCN(CCc2c[nH]c3ccccc23)CC1 [Isomere C, 1-[2-(Indol-3-yl)ethyl]-1,2,5,6-tetrahydro-pyridin-4-carbonsäuremethylester] | keinen | signifikanten (p<0,05) Effekt | keinen | keine signifikante antiamnesiogene Wirkung | keine signifikante antiamnesiogene Wirkung | 10 mg/kg | 100 -fache Dosis | keine signifikante antiamnesiogene Wirkung | –
5 | NC(=O)CN1CCCC1=O [Piracetam] | – | – | – | – | – | – | – | – | 100 mg/kg
